Test [1] relates to Adults with Type 2 Diabetes Mellitus. The settings on record: starting HbA1c below 8; 300 mg/day; as long as 52 weeks; cited from earlier work.
For test [2], the system named is subject with T2D. The test can be described thus: Blood glucose response to postprandial exercise. It counts as in vivo, human. As for the experimental part: The patient of Example 1 was encouraged to track glucose levels, including postprandial glucose levels, to observe the effect of postprandial exercise and lifestyle changes. To control triglyceridemia they also started over the counter orlistat at a 60 mg dose daily with a daily multi-vitamin supplement and an additional vitamin D supplement. They had discontinued metformin and statins. Instead close monitoring of blood glucose levels was undertaken.
In Example 2, when using orlistat at 60 mg daily, the patient noticed that blood glucose levels reduced to a level of about 90 to 100 mg/dL, which is in the normal range, after a modest meal with a brisk walk after eating. The blood glucose levels stayed below 100 mg/dL for several hours. […] Effectively exercise is contraindicated in standard of care treatments for T2D due to the use of medications that can drive the glucose levels too low.
A subject with T2D with fasting glucose levels of over 140 mg/dL was treated with 60 mg Orlistat. The subject undertook exercise in a postprandial state within about an hour and a half after eating. […]
The subject with T2D was treated with Pioglitazone 15 mg and postprandial exercise but no Exercise Sensitizer or SGLT2 inhibitor. Over twenty minutes of postprandial exercise glucose readings were taken every 5 minutes for fifteen minutes. […]
The subject with T2D was treated with Exercise Sensitizer Colestipol (1 gm dose) and postprandial exercise. Over twenty minutes of postprandial exercise glucose readings were taken every 5 minutes for fifteen minutes. […]
The subject with T2D was treated with Exercise Sensitizer Colestipol (1 gm) before each meal and with 60 mg. of Exercise Sensitizer Orlistat and 100 mg. of Canagliflozin daily. […] Over twenty minutes of postprandial exercise on an elliptical trainer at a resistance setting of 6, glucose readings dropped to about 81 to 84 mg/dL. […]

Test [3] relates to subject with T2D. The test can be described thus: Blood glucose response to exercise in a fasting state. The settings on record: 60 mg Orlistat; over fifteen to thirty minutes. It counts as in vivo, human. As for the experimental part:
A subject with T2D with starting fasting glucose level of about 140 mg/dL to 160 mg/dL and HbA1c of about 8 was treated with Orlistat. In one aspect, the subject with T2D was treated with 60 mg Orlistat and exercised in a fasting state. […] Although not intending to be bound by theory, one factor may be the natural inhibition of gluconeogenesis in the postprandial state. In addition, the release of fatty acids or lack thereof may affect the release of cholecystokinin and other downstream effects and thus account for the synergy between the postprandial state and the Exercise Sensitizers.

Test [4] relates to subject with T2D. The test can be described thus: Three month treatment with postprandial exercise: fasting glucose, HbA1c, triglycerides, BMI. The format is in vivo, human. Particulars: postprandial exercise with orlistat; from over 500 mg/dL. As for the experimental part:
Over three months to speed up the slow progress the subject with T2D with fasting glucose level of about 140 mg/dL and HbA1c of about 7.5 or above was treated with Orlistat at the lowest marketed dose of 60 mg and the lowest dose for either Canafliglozin (100 mg) and Dapagliflozin (5 mg). Postprandial exercise with orlistat reduced triglycerides to about 260 mg/dL from over 500 mg/dL.
An invasive glucose testing meter was used to simulate a post-prandial invasive/noninvasive glucose monitoring device. Specifically a combination of orlistat and a SGLT2 inhibitor (Canafliglozin and Dapagliflozin) was administered. Treatment with orlistat (60 mg) daily alone with […]
The fasting glucose levels changed and continued to decrease overall over the three months.
The fasting glucose levels were obtained using a portable glucose meter while the fasting glucose (again to check the meter and strip accuracy) and HbA1c were determined using laboratory tests that included a lipid panel. […] Also the subject could not be fully compliant—many meals were not followed by exercise. The treatment with Exercise Sensitizer and SGLT2 inhibitor was adhered to strictly. Still, the triglyceride levels dropped to 260 and eventually to about 220 from about 500. […]

With `Cc1ccc([C@@H]2O[C@H](CO)[C@@H](O)[C@H](O)[C@H]2O)cc1Cc1ccc(-c2ccc(F)cc2)s1` [Canagliflozin, (2S,3R,4R,5S,6R)-2-{3-[5-[4-Fluoro-phenyl)-thiophen-2-ylmethyl]-4-methyl-phenyl}-6-hydroxymethyl-tetrahydro-pyran-3,4,5-triol], the “improvement in HbA1c” value in test [1] was “less than 0.8”.
As for `CCCCCCCCCCC[C@@H](C[C@@H]1OC(=O)[C@H]1CCCCCC)OC(=O)[C@H](CC(C)C)NC=O` [Orlistat, (S)—((S)-1-((2S,3S)-3-Hexyl-4-oxooxetan-2-yl)tridecan-2-yl) 2-formamido-4-methylpentanoate], in the test on subject with T2D [2] (60 mg Orlistat, exercise within about an hour and a half after eating, fasting glucose over 140 mg/dL), the “blood/plasma glucose level after postprandial exercise” value is “dropped sharply to the normal range”. Further, the “blood glucose level for several hours after the postprandial walk” value with subject with T2D [2] (orlistat 60 mg daily, several hours) is recorded as “below 100 mg/dL”. The “blood/plasma glucose level on exercise in a fasting state” value in the test on subject with T2D [3] is on record as “increased or remained steady in the high range”. Moreover, in the test with subject with T2D [4], the triglycerides result is on record as “about 260 mg/dL”.
Turning to `CCc1ccc(CCOc2ccc(CC3SC(=O)NC3=O)cc2)nc1` (stereo not drawn) [Pioglitazone], in the test with subject with T2D [2] (Pioglitazone 15 mg, at about ten minutes, then leveled off, from about 175 mg/dL), the “blood glucose level during postprandial exercise” value is on record as “about 103 mg/dL”.

The record behind these values is patent US10743813B2, “Diabetes control using postprandial feedback” (priority 2014, dated 2020).
